In patent publication US20100291041A1, “BACTERIOPHAGE PREPARATION AND USE” (INNOVATIONS-TRANSFER UPHOFF GMBH & CO. KG, priority 2008, published 2010):

Experiments:
P. aeruginosa biofilms = settings: combination with ultrasound below 70 kHz; Qian et al. 1997; cited from earlier work
[1] = use in wounds, albumin present; from EP 0 700 249 B1; cited from earlier work
Pseudomonas aeruginosa = Pseudomonas aeruginosa versus Staphylococcus aureus; from EP 0 700 249 B1; cited from earlier work
[2] = own microbiological tests

Q: Which “increase in effect versus antibiotic alone” value (P. aeruginosa biofilms) does the source give for gentamicin here?
A: Its value is over 250%.

Q: What does the source list for “polyhexamethylene biguanide [polyhexanide]”?
A: loss of action caused by albumin (in wounds) [1]: considerable loss of action; activity lower by a factor, in comparison with Staphylococcus aureus (Pseudomonas aeruginosa): ~10; loss of action by the factor (effect of albumin) [2]: about 10
